Laboratory results from patent publication US8853264B2, “Use of lignan compounds for treating or preventing inflammatory disease” (Newtree Industry Co., Ltd., priority 2005, dated 2014).

Key:
[1] = Clinical visual evaluation of skin lesion, atopic dermatitis model; type: in vivo, NC/Nga mice
Procedure: In order to induce atopic dermatitis, 100 mg of mite antigen cream was applied on the ear, occipital region and back of NC/Nga mouse (9 to 11 weeks old), except for the negative control group, 3 times a week, 2 hours after the application of 4% SDS solution. Three weeks later, it was observed whether atopic dermatitis was induced by checking skin rash, erythema, cornification, or the like. Atopic dermatitis was induced in all groups except for the negative control group. For drug treatment and evaluation of therapeutic effect, mice were grouped into 12 groups, 6 oral administration groups and 6 topical application groups (each consisting of negative control group, positive control group, macelignan low conc. group, macelignan high conc. group, nutmeg extract low conc. group, and nutmeg extract high conc. group), with n=5 per cage. […] Transepidermal water loss (TEWL), skin hydration and erythema index were measured one day before the end of the test. […]
Prior to the end of the experiment, the lesions of the mice were photographed. The change of the skin lesion was evaluated visually.

[2] = system: inflammatory cells, mast cells, eosinophils; experiment: Skin staining (H&E, Toluidine blue, Congo red), atopic dermatitis model; type: in vivo, NC/Nga mice
Procedure: 8-week-old NC/Nga mice (20-25 g) were purchased from Chungang Lab. Animal. After adapting for 1 week, the NC/Nga mouse was anesthetized with 90% ethyl ether (Ducsan, Korea) and hair was removed from the occipital region and the back of the mouse using depilatory cream (Reckitt Benckiser, France). After allowing micro wound healing for a day, 100 mg of mite antigen cream (Biostir, Inc. Japan) comprising Dermatophagoides farina, which causes atopic dermatitis, as a main ingredient was evenly applied on the ear, occipital region and back, 3 times a week (for 5 weeks, from week 9 to week 13). 2 hours before application of the mite antigen cream, 4% SDS solution was applied at the same area to increase transdermal absorption of the mite antigen cream by inducing the breakdown of skin fats and cuticle layer. From week 3 following the application, IgE value was measured to quantitate the degree of atopic dermatitis. Also during the drug treatment period (week 12 to week 13), 100 mg of the mite antigen cream was applied 3 times a week to prevent spontaneous healing of the atopic dermatitis.
In order to induce atopic dermatitis, 100 mg of mite antigen cream was applied on the ear, occipital region and back of NC/Nga mouse (9 to 11 weeks old), except for the negative control group, 3 times a week, 2 hours after the application of 4% SDS solution. Three weeks later, it was observed whether atopic dermatitis was induced by checking skin rash, erythema, cornification, or the like. Atopic dermatitis was induced in all groups except for the negative control group. For drug treatment and evaluation of therapeutic effect, mice were grouped into 12 groups, 6 oral administration groups and 6 topical application groups (each consisting of negative control group, positive control group, macelignan low conc. group, macelignan high conc. group, nutmeg extract low conc. group, and nutmeg extract high conc. group), with n=5 per cage. During the following drug treatment and evaluation period of 2 weeks (12 to 13 weeks old), the negative control groups, which had not been treated with 4% SDS solution and mite antigen cream, were treated with physiological saline (oral administration group) or base cream (topical application group) every day, and the positive control groups, which had been treated with 100 mg of mite antigen cream 2 hours after application of 4% SDS solution, 3 times every week, were treated with physiological saline (oral administration group) or base cream (topical application group). The oral administration groups were treated with 100 mg of mite antigen cream 2 hours after application of 4% SDS solution, 3 times every week, and were treated with macelignan or nutmeg extract at low concentration (50 mg/kg/day) or high concentration (150 mg/kg/day) every day. The topical application groups were treated with 100 mg of mite antigen cream 2 hours after application of 4% SDS solution, 3 times every week, and were treated with macelignan cream or nutmeg extract cream at low concentration (20 mg/kg/day) or high concentration (60 mg/kg/day) every day. Transepidermal water loss (TEWL), skin hydration and erythema index were measured one day before the end of the test. Serum was obtained by retro-orbital blood sampling. After the end of the test (14 weeks old) spleen and skin tissues from occipital region and back were sampled and stored at −70° C. ALN (axillary lymph node) was stored in DMEM containing 2% FBS (fetal bovine serum). The skin tissues were stored in 10% formalin solution.
After the end of the experiment, skin was isolated from the occipital region. Hematoxylin/eosin (H&E) staining was performed to examine change of inflammatory cells such as mast cells, neutrophils, eosinophils, etc. in the epidermis, dermis and keratinocytes and change of skin thickness. Toluidine blue staining was performed to selectively stain the mast cells, and congo red staining was performed to selectively stain the eosinophils.

[3] = system: edemas of the rat ears induced by TPA; experiment: TPA-induced rat ear edema inhibition test; type: in vivo, Wistar rats; conditions: for Edema thickness: topical in acetone 30 min after TPA, measured after 8 hours
Procedure: The anti-inflammatory activity of the lignan compound isolated and purified in <Example 1> was tested in animal models. The anti-inflammatory activity was measured by edema inhibition test on rats. As the test animals, 5-week-old Wistar rats (DaeHan Biolink Co., Ltd, Korea) were used. The animals were provided with standard pellet forming rat feed (Cheiljedang Corporation, Korea) and given freely to feed and water. Also, the animals were housed in conditions of 12-hr light/12-hr dark cycle, temperature of 25±2° C. and humidity of 60±10%. Inflammation inducing agent TPA (12-O-tetradecanoylphorbol-13-acetate; Sigma) was dissolved in acetone to a concentration of 200 μg/mL. The edemas of the rat ears were induced by applying the TPA solution locally to each of the outer and inner faces of the ear in an amount of 10 μl/ear (4 μg/ear). The macelignan purified in <Example 1> and non-steroidal anti-inflammatory drug indomethacin as a control substance were dissolved in acetone and used in amounts of 20, 200 and 2000 μg/ear. Each of the macelignan and the indomethacin was applied locally to the rat ears at 30 minutes after treatment with TPA. A control group was locally applied with acetone. The thickness of the rat ears was measured with a caliper 8 hours after treatment with each of the substances. An increase in the ear thickness in the group treated with the sample was compared to that of the group untreated with the sample, and inflammation inhibitory effect was measured by calculating percent edema inhibition.

PGE2 = PGE2 production in macrophages activated by LPS (ELISA); type: cell-based
Procedure: First, 1×10^6 cells/ml of RAW264.7 cells were inoculated into a 96-well tissue culture plate and left to stand at room temperature for 5 hours. Then, the inventive macelignan was added to the cells at each of concentrations of 1-20 μM and incubated for 2 hours. A negative control group was not treated with anything, and a positive control group was treated with curcumin (isolated from Curcuma longa; Sigma) reported to have PGE2 inhibitory activity. Then, the cells were treated with 1 μg/ml of LPS and cultured for 18 hours. The production of PGE2 in the macrophages was quantified by an assay kit (R&D System Inc, Minneapolis, USA) using an ELISA method (Chen et al., Biochem. Pharmacol., 68: 1089-1100, 2002).

[4] = oral administration 50 and 150 mg/kg
[5] = topical application 20 and 60 mg/kg

SMILES: COc1cc(C[C@H](C)[C@H](C)Cc2ccc3c(c2)OCO3)ccc1O (single isomer, unassigned) [macelignan]
- clinical visual evaluation of skin lesion [1, 4]: remarkable decrease in erythema/hemorrhage, dryness/scarring, edema, excoriation/erosion and lichenification and improvement in atopic dermatitis
- clinical visual evaluation of skin lesion [1, 5]: remarkable decrease in erythema/hemorrhage, dryness/scarring, edema, excoriation/erosion and lichenification and improvement in atopic dermatitis
- Congo red staining: eosinophils [2, 4]: effect of decreasing eosinophils
- H&E staining: inflammatory cells and epidermal thickness [2, 4]: effect of decreasing inflammatory cells and increased epidermal thickness
- Toluidine blue staining: mast cells [2, 4]: effect of decreasing mast cells
- Congo red staining: eosinophils [2, 5]: effect of decreasing eosinophils
- H&E staining: inflammatory cells and epidermal thickness [2, 5]: effect of decreasing inflammatory cells and increased epidermal thickness
- Toluidine blue staining: mast cells [2, 5]: effect of decreasing mast cells
- Edema inhibition ([3]; dose 20 μg/ear): 36.7%
- Edema thickness ([3]; dose 20 μg/ear): 157 ± 9 μm
- Edema inhibition ([3]; dose 200 μg/ear): 60.5%
- Edema thickness ([3]; dose 200 μg/ear): 98 ± 6 μm
- Edema inhibition ([3]; dose 2000 μg/ear): 79.0%
- Edema thickness ([3]; dose 2000 μg/ear): 52 ± 4 μm
- percent edema inhibition compared with indomethacin ([3]; local application on rat ears): higher than that of currently commercially available anti-inflammatory drug indomethacin
- rat edema induced by TPA (result in words) ([3]; local application on rat ears): inhibited the formation of edema in a concentration-dependent manner
- production of PGE2 (PGE2; 1-20 μM, LPS 1 μg/ml, 18 hours, effect shown even at 5 μM): concentration-dependently inhibited
- PGE2 production-inhibitory effect compared with curcumin (PGE2; positive control curcumin, P<0.05): almost similar to the case of treatment with curcumin
